Test results: patent US5527820A, “Antibiotics having immunosuppressive activity, delaminomycins and processes for the production of the same” (priority 1992, dated 1996)
Converted amounts (≈) assume the structure as drawn. Read-outs that look alike come from different tables or passages of the source.

Legend:
[1] = system: Candida Yu-1200; assay: MIC, agar plate dilution method; format: cell-based; details: YU1200, 27° C., 42 hours, nutrient agar containing glucose
[2] = system: Mouse leukemia L-1210; assay: Inhibitory activity on proliferation of cancer cells; format: cell-based; details: L1210
[3] = system: Xanthomonas citri; assay: MIC, agar plate dilution method; format: cell-based; details: 27° C., 42 hours, nutrient agar containing glucose
Description: (§1) Delaminomycins A, B, C, A2, B2 and C2 according to this invention further have an antibacterial activity against a variety of bacteria. The minimum growth inhibitory concentrations (MIC) (μg/ml) of the novel antibiotics of this invention on various bacteria and fungi as measured by the agar plate dilution method are shown in Table 5a, Table 5b, Table 5c and Table 5d below.
(§2) Evaluated after culturing at 27° C. for 42 hours in nutrient agar
(§3) medium containing glucose.

[4] = system: Cochliobolus miyabeanus; assay: MIC, agar plate dilution method; format: cell-based; details: Bipolaris oryzae; 27° C., 42 hours, nutrient agar containing glucose
Description: as §1, §2, §3

[5] = system: Candida pseudotropicalis F-2; assay: MIC, agar plate dilution method; format: cell-based; details: Kluyveromyces marxianus, F2; 27° C., 42 hours, nutrient agar containing glucose
[6] = system: Aspergillus niger F-16; assay: MIC, agar plate dilution method; format: cell-based; details: F16, 27° C., 42 hours, nutrient agar containing glucose
[7] = system: Trichophyton mentagrophytes F-15 (833); assay: MIC, agar plate dilution method; format: cell-based; details: 27° C., 42 hours, nutrient agar containing glucose
[8] = system: Candida albicans 3147; assay: MIC, agar plate dilution method; format: cell-based; details: 27° C., 42 hours, nutrient agar containing glucose
[9] = system: Human Lymphoma Jurkat; assay: Inhibitory activity on proliferation of cancer cells; format: cell-based
[10] = Solubility; details: result in words; for Solubility: various solvents
[11] = system: Mouse melanoma B-16; assay: Inhibitory activity on proliferation of cancer cells; format: cell-based; details: B16
[12] = system: spleen cells (T cells activated by Concanavalin A); assay: Inhibitory activity against blastogenesis and proliferation of spleen cells caused by mitogen (Con A); format: cell-based, mouse (CDF1); details: for IC50: read-out: IC50 (inhibition of blastogenesis and proliferation of spleen lymphocyte caused by Con A); for inhibition at 0.39 µg/mL: 0.39 μg/ml test compound; for inhibition at 6.25 µg/mL: 6.25 μg/ml test compound; for inhibition at 25 µg/mL: 25 μg/ml test compound; for inhibition at 100 µg/mL: 100 μg/ml test compound; for activity inhibitory to the reaction of proliferation of mouse spleen cells activated with Concanavalin A: in vitro, result in words; for inhibition at 1.56 µg/mL: 1.56 μg/ml test compound
[13] = system: nylon wool-passed cells of spleen cells (responder cell; T cells); assay: Inhibitory activity to the mixed lymphocyte culture reaction; format: cell-based, rat (Fischer F344 responder; WKY stimulator); details: for inhibition at 1.56 µg/mL / inhibition at 0.1 µg/mL / inhibition at 0.39 µg/mL / inhibition at 6.25 µg/mL / inhibition at 25 µg/mL / inhibition at 100 µg/mL / IC50: Rattus norvegicus, T-cell; for inhibition at 1.56 µg/mL / inhibition at 0.1 µg/mL / inhibition at 0.39 µg/mL / inhibition at 6.25 µg/mL / inhibition at 25 µg/mL / inhibition at 100 µg/mL: read-out: Inhibition rate; for inhibition at 0.1 µg/mL: 0.10 μg/ml test compound; for inhibition at 0.39 µg/mL: 0.39 μg/ml test compound; for inhibition at 6.25 µg/mL: 6.25 μg/ml test compound; for inhibition at 25 µg/mL: 25 μg/ml test compound; for inhibition at 100 µg/mL: 100 μg/ml test compound; for IC50: 120 hours, 3H-thymidine incorporation, read-out: IC50 (inhibition of mixed lymphocyte culture reaction); for activity to inhibit the proliferation of the T cells (responder cell) in mixed lymphocyte culture reaction: in vitro, result in words
[14] = system: Saccharomyces cerevisiae F-7; assay: MIC, agar plate dilution method; format: cell-based; details: F7, 27° C., 42 hours, nutrient agar containing glucose
[15] = system: Mouse leukemia EL-4; assay: Inhibitory activity on proliferation of cancer cells; format: cell-based; details: EL4
[16] = system: Pellicularia sasakii; assay: MIC, agar plate dilution method; format: cell-based; details: 27° C., 42 hours, nutrient agar containing glucose
[17] = system: Candida tropicalis F-1; assay: MIC, agar plate dilution method; format: cell-based; details: F1, 27° C., 42 hours, nutrient agar containing glucose
[18] = system: Trichophyton asteroides 429; assay: MIC, agar plate dilution method; format: cell-based; details: 27° C., 42 hours, nutrient agar containing glucose
[19] = system: Mouse leukemia P388D1; assay: Inhibitory activity on proliferation of cancer cells; format: cell-based
[20] = Absorption into the digestive tracts on oral administration; details: result in words
[21] = system: Piricularia oryzae; assay: microbe, parasite or virus in culture; format: cell-based; details: 42 h
[22] = system: Candida krusei F-5; assay: MIC, agar plate dilution method; format: cell-based; details: Pichia kudriavzevii, F5; 27° C., 42 hours, nutrient agar containing glucose
[23] = system: Gram-positive bacteria; assay: Antibacterial activity to Gram-positive bacteria; format: cell-based; details: result in words
Description: as §1

[24] = system: delayed-type hypersensitivity (DTH); assay: Suppressive effect on delayed-type hypersensitivity (DTH) in mouse, oral; format: in vivo, mouse (CDF1); details: oral once a day, 0~4th day
Description: CDF1 mice were immunized by intravenously injecting sheep red blood cells (10^5 cells/mouse). On the 4th day after the immunization, sheep red blood cells (10^8 cells/mouse) were subcutaneously injected into the footpad of mice for the elicitation to cause a delayed-type hypersensitivity. Test compound was orally administered to the mice once a day from the 0 th day to the 4 th day after the immunization. On the 5th day after the elicitation, the thickness of the mouse footpad was measured to estimate the suppressive effect of the test compound on DTH. The suppressive effect of the test compound was evaluated in terms of the inhibition rate (%) as calculated according to the following equation:
Inhibition rate (%)=100-(T/C×100)
wherein T denotes the thickness of the footpad when the test compound was administered, but C denotes the thickness of the footpad when no test compounnd was administered.

[25] = Mus musculus, T-cell, read-out: Inhibition rate

Compound	MIC [1] [µg/mL]	IC50 [2] [µg/mL]	MIC [3] [µg/mL]	Solubility [10]	Solubility in water [10]	IC50 ([12]; Mus musculus, T-cell) [µg/mL]	inhibition at 0.39 µg/mL [12, 25] [%]	inhibition at 6.25 µg/mL [12, 25] [%]	inhibition at 25 µg/mL [12, 25] [%]	inhibition at 100 µg/mL [12, 25] [%]	activity inhibitory to the reaction of proliferation of mouse spleen cells activated with Concanavalin A [12]	inhibition at 0.1 µg/mL [13] [%]	inhibition at 0.39 µg/mL [13] [%]	inhibition at 6.25 µg/mL [13] [%]	inhibition at 25 µg/mL [13] [%]	inhibition at 100 µg/mL [13] [%]	IC50 [13] [µg/mL]	activity to inhibit the proliferation of the T cells (responder cell) in mixed lymphocyte culture reaction [13]	absorption into the digestive tracts / oral absorption [20]	Inhibition rate (DTH footpad thickness) ([24]; 2.0 mg/mouse) [%]	also measured
CCC(O)C(C)/C=C/C=C/C(O)CC1C=CC2CC(C)CC(C)C2C1(C)C(=O)C1C(=O)NC(OC)C1=O (stereo not drawn) [Delaminomycin B]	> 100	30 (≈ 58.2 µM)	> 100	soluble in methanol but slightly soluble or insoluble in water, acetone, ethyl ether and n-hexane	barely soluble in water	4 (≈ 7.76 µM)	0	77	69	70	exhibit an activity inhibitory to the reaction of proliferation of mouse spleen cells	12.1	27.9	95.1	95	93.2	1.1 (≈ 2.13 µM)	have an activity to inhibit the reaction of proliferation of the T cells	hardly absorbed into the digestive tracts		MIC [4]: > 100 µg/mL; MIC [5]: > 100 µg/mL; MIC [6]: > 100 µg/mL; MIC [7]: > 100 µg/mL; MIC [8]: > 100 µg/mL; IC50 [9]: 8.2 µg/mL (≈ 15.9 µM); IC50 [11]: > 100 µg/mL; inhibition at 1.56 µg/mL [13]: 58.4%; MIC [14]: > 100 µg/mL; IC50 [15]: 11.1 µg/mL (≈ 21.5 µM); MIC [16]: > 50 µg/mL; MIC [17]: > 100 µg/mL; MIC [18]: > 100 µg/mL; IC50 [19]: 13.3 µg/mL (≈ 25.8 µM); MIC [21]: > 100 µg/mL; MIC [22]: > 100 µg/mL
CCC(O)C(C)/C=C/C=C/C(O)CC1C=CC2CC(C)CC(C)C2C1(C)C(=O)C1C(=O)CNC1=O (stereo not drawn) [Delaminomycin C]	> 100	42 (≈ 86.5 µM)	> 100	soluble in methanol but slightly soluble or insoluble in water, acetone, ethyl ether and n-hexane	barely soluble in water	1 (≈ 2.06 µM)	1	75	76	76	exhibit an activity inhibitory to the reaction of proliferation of mouse spleen cells	19.5	41.6	97.3	97.6	96.9	0.5 (≈ 1.03 µM)	have an activity to inhibit the reaction of proliferation of the T cells	hardly absorbed into the digestive tracts		MIC [4]: > 100 µg/mL; MIC [5]: > 100 µg/mL; MIC [6]: > 100 µg/mL; MIC [7]: > 100 µg/mL; MIC [8]: > 100 µg/mL; IC50 [9]: 1.2 µg/mL (≈ 2.47 µM); IC50 [11]: 7.4 µg/mL (≈ 15.2 µM); inhibition at 1.56 µg/mL [12, 25]: 75%; inhibition at 1.56 µg/mL ([13]; 1.56 μg/ml test compound): 89%; MIC [14]: > 100 µg/mL; IC50 [15]: 1.9 µg/mL (≈ 3.91 µM); MIC [16]: > 50 µg/mL; MIC [17]: > 100 µg/mL; MIC [18]: > 100 µg/mL; antibacterial activity to Gram-positive bacteria [23]: antibacterial activity to Gram-positive bacteria; IC50 [19]: 3.1 µg/mL (≈ 6.38 µM); MIC [21]: > 100 µg/mL; MIC [22]: > 100 µg/mL
CCC(OS(=O)(=O)O)C(C)/C=C/C=C/C1CC2C=CC3CC(C)CC(C)C3C2(C)C(=O)C12C(=O)CNC2=O (stereo not drawn)																				35.4	
CCC(O)C(C)/C=C/C=C/C1CC2C=CC3CC(C)CC(C)C3C2(C)C(=O)C12C(=O)CNC2=O (stereo not drawn) [Delaminomycin C2]		3.6 (≈ 7.7 µM)		Soluble in methanol, ethyl acetate and chloroform but slightly soluble or insoluble in n-hexane and water	barely soluble in water	1.6 (≈ 3.42 µM)	0	84	85	93	exhibit an activity inhibitory to the reaction of proliferation of mouse spleen cells	-7	-6	-1	29	99	37.9 (≈ 81 µM)	have an activity to inhibit the reaction of proliferation of the T cells	hardly absorbed into the digestive tracts	25.7	inhibition at 0.1 µg/mL ([12]; Mus musculus, T-cell, 0.1 μg/ml test compound, read-out: Inhibition rate): 0%; inhibition at 1.56 µg/mL [12, 25]: 49%; inhibition at 1.56 µg/mL ([13]; 1.56 μg/ml test compound): 1%; antibacterial activity to Gram-positive bacteria [23]: antibacterial activity to Gram-positive bacteria
CCC(OS(=O)(=O)O)C(C)/C=C/C=C/C1CC2C=CC3CC(C)CC(C)C3C2(C)C(=O)C12C(=O)NC(OC)C2=O (stereo not drawn)																				40.2	
CCC(OS(=O)(=O)O)C(C)/C=C/C=C/C1CC2C=CC3CC(C)CC(C)C3C2(C)C(=O)C12C(=O)NC(O)C2=O (stereo not drawn)																				56.3	Inhibition rate (DTH footpad thickness) ([24]; 0.5 mg/mouse): -0.7%; Inhibition rate (DTH footpad thickness) ([24]; 8.0 mg/mouse): 85.2%
